Legend:
[1] = Aqueous solubility at 37° C. (HPLC of filtered suspension); assay type: physicochemical; settings: for peak solubility: at 1 hour
Protocol: The solubility of novel crystalline forms of QTX125 was assessed in the following aqueous solutions: (i) phosphate buffer, pH 3.5, 0.9% w/v sodium chloride; (ii) phosphate buffer, pH 6.5, 0.9% w/v sodium chloride; (iii) acetate buffer, pH 4.5, 0.9% w/v sodium chloride; (iv) citro-phosphate buffer, pH 4.5, 0.9% w/v sodium chloride; (v) sodium chloride, 0.9% w/v and (vi) deionised water. All assays were completed at 37° C.
In brief, 30 mg QTX125 was dispensed into vessels followed by 5 mL of the appropriate aqueous buffer. Mixtures were suspended by agitation and heated to 37° C. At various fixed intervals, an 0.4 mL aliquot of the suspension was removed, filtered and diluted for examination by HPLC. A single HPLC reference sample was used.

[2] = Photostability in solution (THF and water), HPLC; assay type: physicochemical; settings: in solution (THF and water), sealed under nitrogen in amber glass bottles
Protocol: The method for determining purity by HPLC—used throughout these examples—used the following parameters:
The photostability of novel crystalline forms of QTX125 was assessed at solid state and in solution. Where ‘forced illumination’ conditions were used, samples were illuminated at 12 Klux/hour and 2.8 UV W/m^2/hour. Samples were stored at a temperature of 30° C. Following incubation, the chemical purity of QTX125 was measured by HPLC.
The following index is provided to aid navigation of the data presented in Tables 3.1.1 to 3.3.6: • 3.1.x—Assessment of the photostability of QTX125 Form 2. • 3.2.x—Assessment of the photostability of amorphous QTX125. • 3.3.x—Assessment of the photostability of the QTX125 1:2 L-Lysine adduct. • 3.x.1—Samples (at solid state) stored in unsealed clear glass bottles, subject to forced illumination. • 3.x.2—Samples (at solid state) sealed under nitrogen in clear glass bottles, subject to forced illumination. • 3.x.3—Samples (at solid state) sealed under nitrogen in amber glass bottles, illuminated under ambient laboratory conditions • 3.x.4—Samples (at solid state) sealed under nitrogen in amber glass bottles, subject to forced illumination. • 3.x.5—Samples (in solution) sealed under nitrogen in amber glass bottles, illuminated under ambient laboratory conditions. • 3.x.6—Samples (in solution) sealed under nitrogen in amber glass bottles, subject to forced illumination.

[3] = ambient laboratory conditions, 171 hours

For `NCCCC[C@H](N)C(=O)O.NCCCC[C@H](N)C(=O)O.O=C(NO)c1ccc(CNC(=O)c2[nH]c(-c3ccc(O)cc3)cc2-c2ccoc2)cc1` [QTX125 1:2 L-Lysine adduct], the “solubility in a saline solution compared to other forms, including an amorphous form” value [1] was “more soluble”, the “PXRD analysis of the solid recovered at 24 hours” value ([1]; aqueous buffer, 37° C.) was “identified the precipitating entity as Form 2” and the “concentration of QTX125 (solubility)” value ([1]; buffer (i) phosphate buffer, pH 3.5, 0.9% w/v sodium chloride, 37° C., 1 hour) was 0.28 µg/mL. For the same compound, the “concentration of QTX125 (solubility)” value ([1]; buffer (i) phosphate buffer, pH 3.5, 0.9% w/v sodium chloride, 37° C., 4 hours) was 0.33 µg/mL, the “concentration of QTX125 (solubility)” value ([1]; buffer (i) phosphate buffer, pH 3.5, 0.9% w/v sodium chloride, 37° C., 7 hours) was 0.23 µg/mL and the “concentration of QTX125 (solubility)” value ([1]; buffer (i) phosphate buffer, pH 3.5, 0.9% w/v sodium chloride, 37° C., 24 hours) was 0.34 µg/mL. The “concentration of QTX125 (solubility)” value ([1]; buffer (ii) phosphate buffer, pH 6.5, 0.9% w/v sodium chloride, 37° C., 1 hour) was 0.32 µg/mL, the “concentration of QTX125 (solubility)” value ([1]; buffer (ii) phosphate buffer, pH 6.5, 0.9% w/v sodium chloride, 37° C., 4 hours) was 0.24 µg/mL and the “concentration of QTX125 (solubility)” value ([1]; buffer (ii) phosphate buffer, pH 6.5, 0.9% w/v sodium chloride, 37° C., 7 hours) was 0.39 µg/mL. The “concentration of QTX125 (solubility)” value ([1]; buffer (ii) phosphate buffer, pH 6.5, 0.9% w/v sodium chloride, 37° C., 24 hours) was 0.28 µg/mL, the “concentration of QTX125 (solubility)” value ([1]; buffer (iii) acetate buffer, pH 4.5, 0.9% w/v sodium chloride, 37° C., 1 hour) was 0.25 µg/mL and the “concentration of QTX125 (solubility)” value ([1]; buffer (iii) acetate buffer, pH 4.5, 0.9% w/v sodium chloride, 37° C., 4 hours) was 0.35 µg/mL. The “concentration of QTX125 (solubility)” value ([1]; buffer (iii) acetate buffer, pH 4.5, 0.9% w/v sodium chloride, 37° C., 7 hours) was 0.35 µg/mL, the “concentration of QTX125 (solubility)” value ([1]; buffer (iii) acetate buffer, pH 4.5, 0.9% w/v sodium chloride, 37° C., 24 hours) was 0.33 µg/mL and the “concentration of QTX125 (solubility)” value ([1]; buffer (iv) citro-phosphate buffer, pH 4.5, 0.9% w/v sodium chloride, 37° C., 1 hour) was 0.33 µg/mL. For the same compound, the “concentration of QTX125 (solubility)” value ([1]; buffer (iv) citro-phosphate buffer, pH 4.5, 0.9% w/v sodium chloride, 37° C., 4 hours) was 0.29 µg/mL, the “concentration of QTX125 (solubility)” value ([1]; buffer (iv) citro-phosphate buffer, pH 4.5, 0.9% w/v sodium chloride, 37° C., 7 hours) was 0.37 µg/mL and the “concentration of QTX125 (solubility)” value ([1]; buffer (iv) citro-phosphate buffer, pH 4.5, 0.9% w/v sodium chloride, 37° C., 24 hours) was 0.27 µg/mL. The “concentration of QTX125 (solubility)” value ([1]; buffer (v) sodium chloride, 0.9% w/v, 37° C., 1 hour) was 29.81 µg/mL, the “concentration of QTX125 (solubility)” value ([1]; buffer (v) sodium chloride, 0.9% w/v, 37° C., 4 hours) was 16.91 µg/mL and the “concentration of QTX125 (solubility)” value ([1]; buffer (v) sodium chloride, 0.9% w/v, 37° C., 7 hours) was 8.51 µg/mL. The “concentration of QTX125 (solubility)” value ([1]; buffer (v) sodium chloride, 0.9% w/v, 37° C., 24 hours) was 4.52 µg/mL, the “concentration of QTX125 (solubility)” value ([1]; buffer (vi) deionised water, 37° C., 1 hour) was 24.5 µg/mL and the “concentration of QTX125 (solubility)” value ([1]; buffer (vi) deionised water, 37° C., 4 hours) was 16.22 µg/mL. The “concentration of QTX125 (solubility)” value ([1]; buffer (vi) deionised water, 37° C., 7 hours) was 10.14 µg/mL, the “concentration of QTX125 (solubility)” value ([1]; buffer (vi) deionised water, 37° C., 24 hours) was 7.76 µg/mL and the “solubility (in words)” value ([1]; buffers (i) to (iv), 37° C.) was “very low”. It also gave a peak solubility ([1]; deionised water (buffer vi), 37° C., listed as 1:2 L-Lysine adduct) of 24.5 µg/mL, a peak solubility ([1]; deionised water (buffer vi), 37° C., listed as adduct) of 24.5 µg/mL and a peak solubility ([1]; sodium chloride 0.9% w/v (buffer v), 37° C., listed as 1:2 L-Lysine adduct) of 29.81 µg/mL. The peak solubility ([1]; sodium chloride 0.9% w/v (buffer v), 37° C., listed as adduct) was 29.81 µg/mL, the “HPLC peak area, QTX125 RRT 1.00” value [2, 3] was 93.18% and the “HPLC peak area, RRT 1.04” value [2, 3] was 1.50%. For the same compound, the “HPLC peak area, RRT 1.12” value [2, 3] was 0.97%, the “degradation (in words)” value ([2]; ambient laboratory conditions, up to 171 hours) was “degrades” and the “HPLC peak area, QTX125 RRT 1.00” value ([2]; forced illumination, 0 hours) was 96.83%. For the same compound, the “HPLC peak area, RRT 1.04” value ([2]; forced illumination, 0 hours) was 1.15%, the “HPLC peak area, QTX125 RRT 1.00” value ([2]; forced illumination, 3 hours) was 98.01% and the “HPLC peak area, RRT 1.04” value ([2]; forced illumination, 3 hours) was 0.71%. For the same compound, the “HPLC peak area, RRT 1.12” value ([2]; forced illumination, 3 hours) was 0.33%, the “HPLC peak area, QTX125 RRT 1.00” value ([2]; forced illumination, 50 hours) was 84.17% and the “HPLC peak area, RRT 1.04” value ([2]; forced illumination, 50 hours) was 1.03%. The “HPLC peak area, RRT 1.12” value ([2]; forced illumination, 50 hours) was 2.14%, the “HPLC peak area, QTX125 RRT 1.00” value ([2]; forced illumination, 171 hours) was 89.96% and the “HPLC peak area, RRT 1.04” value ([2]; forced illumination, 171 hours) was 2.82%.
